“And” between values parts separate entries of the source, which are not always exact repeats. Equal entries are not always repeated. “Also recorded” adds a separate entry of the source.
Tests used:
Format in all cases: cell-based, human
[1] = tested on: nitroreductase NfsA-expressing HCT116 'activator' cells; assay: MCL (multicellular layer) bystander experiment, NfsA-dependent activation; settings: for bystander property (in words): MCL of NTR-expressing and parental HCT116 cells; for calculated bystander effect efficiency (BEE) / estimated bystander effect efficiency (BEE): hyperoxic (95% O2) MCLs; for calculated bystander effect efficiency (BEE): HCT116-WT targets mixed with NfsA activators (activator fraction differs per experiment); for estimated bystander effect efficiency (BEE): at concentrations achievable in α-MEM+10% FBS, activator fraction differs per experiment
Procedure: Displacement of the Target cell survival curve to the left (T to Tc) is indicative of the presence of a cytotoxic metabolite(s) able to diffusible out of the sensitive activator (A) cell population. The prodrug concentrations for 10% survival (C10) of target cells (wild-type cells) grown without activators (T), targets in co-culture (TC) and activators (nfsA-expressing cells) in co-culture (AC) were determined by interpolation. BEE-Bystander effect efficiency calculates the drugs bystander effect: ((Log C10T−Log C10TC)/(Log C10T−Log C10AC)).
The prodrug concentrations for 10% survival (C10) of target cells (wild-type cells) grown without activators (T), and targets in co-culture (TC) and activators (NTR-expressing cells) in co-culture (AC) can be determined. The bystander effect of a test prodrug is measured by the bystander effect efficiency which can be calculated using the algorithm ((Log C10T−Log C10TC)/(Log C10T−Log C10AC)).
Millicell-CM membrane inserts (Millipore) were coated in calf-skin collagen type III (Sigma-Aldrich) to facilitate cell attachment. […] After exposure, inserts were disaggregated (0.07% trypsin, 10 min, 37° C., followed by 100 μg/ml DNAase I (Sigma-Aldrich). Cells were counted, resuspended and plated in P60 dishes to determine clonogenic survival. To discriminate clonogenic activator (NTR+) from target (NTR−) colonies cells were plated in non-selective medium (total cells) and medium containing 1 μM puromycin (activator cells). Colonies were grown in a 37° C. 5% CO2 incubator for 10 days before staining with methylene blue (2 g/liter in 50% v/v aqueous ethanol). Colonies containing >50 cells were counted as clonogenic survivors. Surviving fractions for each population was calculated as the plating efficiency for drug-treated MCLs/untreated controls. The drug concentrations for 10% survival (C10) of target cells grown without activators (T), targets in co-culture (Tc) and activators in co-culture (Ac) was determined by interpolation.

[2] = tested on: HCT116-WT (parental) 'target' cells; assay: MCL (multicellular layer) bystander experiment, target cells
From the text: FIG. 22 illustrates NfsA-dependent activation of TH-302 in an MCL bystander experiment. It includes a representative bystander efficiency graph. TH-302 dose-response curves for hyperoxic (95% O2) multicellular layers (MCLs) of HCT116-WT (parental) ‘target’ cells in the absence (T) and presence (Tc) of nitroreductase NfsA-expressing HCT116 ‘activator’ cells (A). MCLs are composed of ‘targets only’ (T) or as intimate mixtures of 29% (±4%) NfsA activators (A) and 71% targets (Tc). Displacement of the Target cell survival curve to the left (T to Tc) is indicative of the presence of a cytotoxic metabolite(s) able to diffusible out of the sensitive activator (A) cell population. The prodrug concentrations for 10% survival (C10) of target cells (wild-type cells) grown without activators (T), targets in co-culture (TC) and activators (nfsA-expressing cells) in co-culture (AC) were determined by interpolation. BEE-Bystander effect efficiency calculates the drugs bystander effect: ((Log C10T−Log C10TC)/(Log C10T−Log C10AC)). The calculated bystander effect efficiency is 43.4%.
Bystander effects can be quantified according to methods described in Wilson et al, 2002, Cancer Res. 62:1425-1432, by employing a 3D multicellular layer (MCL) composed of a minority (1%) of NTR-expressing ‘activator’ cells, mixed with a majority (99%) of parental (wild-type) ‘target’ cells. The prodrug concentrations for 10% survival (C10) of target cells (wild-type cells) grown without activators (T), and targets in co-culture (TC) and activators (NTR-expressing cells) in co-culture (AC) can be determined. The bystander effect of a test prodrug is measured by the bystander effect efficiency which can be calculated using the algorithm ((Log C10T−Log C10TC)/(Log C10T−Log C10AC)). […]
Millicell-CM membrane inserts (Millipore) were coated in calf-skin collagen type III (Sigma-Aldrich) to facilitate cell attachment. […] Surviving fractions for each population was calculated as the plating efficiency for drug-treated MCLs/untreated controls. […]

[3] = tested on: HCT116 cells expressing E. coli NfsA; settings: low cell density proliferation assay
Procedure: (§1) FIGS. 10 (B) and 10 (C) illustrates the results of evaluation of 2-nitroimidazole clinical imaging candidates with E. coli and non-E. coli NTRs. Stably-expressing cells were treated with varying concentration of 2-nitroimidazole prodrugs diluted in αMEM+5% FCS+P/S. Cells were exposed to prodrug for 18 hrs, washed and left to regrow for 5 days. IC50 was determined as the concentration of prodrug required to inhibit cell growth by 50% of untreated controls. IC50 values are mean for ≥2 independent experiments. WT:NTR ratio-ratio of IC50 means from WT cells versus NTR-expressing cell lines.
(§2) FIG. 21 illustrates antiproliferative activity (IC50 value) of prodrug candidates with E. coli and non-E. coli nitroreductases. Stably-expressing cells were treated with varying concentration of prodrug diluted in αMEM+5% FCS+P/S. Cells were exposed to prodrug for 18 hrs, washed and left to regrow for 5 days. IC50 was determined as the concentration of prodrug required to inhibit cell growth by 50% of untreated controls. IC50 values are mean for ≥2 independent experiments. WT:NTR ratio-interexperimental ratio of IC50 means from WT cells versus NTR-expressing cell lines.
(§3) Isolated NTR gene sequences were subject to PCR and introduced in the bicistronic plasmid F579 via Gateway cloning (Invitrogen) as described by Prosser et al. (2010, Biochem Pharmacol, 79, 678-687). Stably transfected cell lines were created by transfection of the relevant plasmid using FuGENE 6 Transfection Reagent (Roche). Transfected cell populations were maintained by passage in puromycin
(§4) Cells were passaged in alpha-Minimal Essential Media, (αMEM; Gibco) supplemented with 5% FBS, (GIBCO NZ) without antibiotics. Cell were passaged for <3 months from frozen stocks and confirmed Mycoplasma free (PCR-ELISA; Roche Diagnostics). Cells were aliquoted into the 96-well plate (100 μL/well) and cells were left to attach (≥4 hrs). […] Plates were read on an ELx 808 Absorbance Microplate Reader (Bio-Tek Instruments). Absorbance was measured at 490 nm and 450 nm (final absorbance 490-450). […]

[4] = tested on: HCT116 cells expressing E. coli NfsB; assay: Monolayer antiproliferative (IC50) assay, NTR-expressing HCT116; settings: low cell density proliferation assay
Procedure: as §1, §2, §3, §4

Structure (SMILES) | bystander property (in words) [1] | estimated bystander effect efficiency (BEE) [1] | further results
O=[N+]([O-])c1nccn1CC(O)CNCCBr (stereo not drawn) [RB6145] | lack any measurable bystander effect | – | –
Cn1c(COP(=O)(NCCBr)NCCBr)cnc1[N+](=O)[O-] [TH-302, N,N′-bis(2-bromoethyl)-(1-methyl-2-nitro-1H-imidazol-5-yl)methyl phosphorodiamidic acid ester] | – | – | calculated bystander effect efficiency (BEE) [1]: 43.4% and 43%; sterilisation of the nfsA-expressing cells in the MCL model ([1]; incubation with 90 nM TH-302): Greater than 90%; fold less sensitive, NfsA negative cells versus nfsA-expressing cells ([2]; MCL model): 210 fold; C10 (concentration for 10% survival) of NfsA negative cells in co-culture ([2]; MCL, targets in co-culture with activators): 1.86 µM; C10 (concentration for 10% survival) of NfsA negative cells ([2]; MCL, targets without activators): 18.9 µM
CS(=O)(=O)OCCN(CCBr)c1c(C(=O)NCCO)cc([N+](=O)[O-])cc1[N+](=O)[O-] [PR-104A, 2-((2-bromoethyl)(2-((2-hydroxyethyl)carbamoyl)-4,6-dinitrophenyl)amino)ethyl methanesulfonate] | marked bystander property | 89% | prodrug activation (in words) [3]: significant activation; prodrug activation (in words) [4]: significant activation
O=[N+]([O-])c1nccn1CC(O)CN1CC1 (stereo not drawn) [RSU-1069, 1-(aziridin-1-yl)-3-(2-nitro-1H-imidazol-1-yl)propan-2-ol] | lack any measurable bystander effect | – | –
CN(CCO)C(=O)c1cc([N+](=O)[O-])cc([N+](=O)[O-])c1N(CCBr)CCBr [SN31609, 2-(bis(2-bromoethyl)amino)-N-(2-hydroxyethyl)-N-methyl-3,5-dinitrobenzamide] | – | – | prodrug activation (in words) [3]: significant activation; prodrug activation (in words) [4]: significant activation
O=C1CN(/N=C/c2ccc([N+](=O)[O-])o2)C(=O)N1 [Nitrofurantoin, (E)-1-(((5-nitrofuran-2-yl)methylene)amino)imidazolidine-2,4-dione] | zero bystander property | – | calculated bystander effect efficiency (BEE) [1]: 0%
O=C(Cn1ccnc1[N+](=O)[O-])NCCO [Etanidazole, N-(2-hydroxyethyl)-2-(2-nitro-1H-imidazol-1-yl)acetamide] | zero bystander property | 0% | –
COCC(O)Cn1ccnc1[N+](=O)[O-] (stereo not drawn) [Misonidazole, 1-methoxy-3-(2-nitro-1H-imidazol-1-yl)propan-2-ol] | zero bystander property | 0% | –
CCS(=O)(=O)CCn1c([N+](=O)[O-])cnc1C [Tinidazole, 1-(2-(ethylsulfonyl)ethyl)-2-methyl-5-nitro-1H-imidazole] | lack any measurable bystander effect; also recorded: zero bystander property | 0% | –
